Test results: paper PMC10343475, “Systematic Modification of the Substitution Pattern of the 7-Hydroxy-5-oxopyrazolo[4,3-b]pyridine-6-carboxamide Scaffold Enabled the Discovery of New Ligands with High Affinity and Selectivity for the Cannabinoid Type 2 Receptor” (Molecules, 2023)
Where “and” joins values, the source holds several entries; their conditions need not be identical. Identical values can stand only once. Like-named read-outs stand apart in the source and are kept apart here.

Experiments:
[1] = Dissolution of 63-salts in 0.9% NaCl solution (LC-MS/MS); type: physicochemical
Text: [63^−] = 9.81 × 10^−7 mol^2/L^2. […] However, starting from the cesium salt, the concentration of drug dissolved in the physiological solution maintained high values for at least one hour (around 50 × 10^−6 mol/L, with a peak higher than 100 × 10^−6 mol/L) and, for a further two hours, these values were higher than those obtained with the sodium salt. From this, it can be deduced that the 63-cesium salt would be very suitable for the extemporaneous preparation of injectable solutions in the presence of high concentrations of sodium ions.
An excess amount (~4 to 5 mg) of each salt of compound 63 was added to 5 mL of a 0.9% NaCl solution, kept under constant agitation, and thermostated at room temperature (21 ± 2 °C). At fixed time points, an aliquot was withdrawn from the solution, and centrifuged (3000 g, 10 min, RT) to separate undissolved compound and the supernatant, after dilution with MeOH, was analyzed by LC-MS/MS. An Accela UHPLC system coupled with a TSQ Quantum Access Max triple quad mass spectrometer (Thermo Fisher, Waltham, MA, USA), was employed to quantify dissolved 63 over time. UHPLC separation occurred by gradient elution, employing a Synergy Fusion C18 80Å RP-column (2.0 × 100 mm, 4 µm; Phenomenex, Bologna, Italy). Mobile phases A and B were acetonitrile and water, both with 0.1% v/v formic acid added. The following elution conditions were employed: linear gradient from 60 to 95%A in 5 min; 95% A between 5 and 8 min, returning to 60% A in 0.5 min with 2.5 min reconditioning time. Total run time: 11 min. The flow rate was 0.35 mL/min and injection volume was 10 µL. Heated electrospray (H-ESI) ion source voltage was set at 4.0 KV; capillary temperature at 270 °C. Nitrogen served both as sheath and auxiliary gas at 35 psi and 15 psi, respectively. Argon at a pressure of 1.5 mtorr was employed as collision gas. H-ESI ion source operated in positive ion mode (ESI+) and acquisition occurred in multiple reaction monitoring (MRM). Tube lens voltages (TL) and collision energies (CE) for each parent-product ion transition were optimized by flow injection analysis of 5 µM solutions of each standard in MeOH. Compound 63: m/z = 399.2 [M+H]^+ → m/z = 135.1, 107.1, 93.1 (TL = 98 V; CE = 20, 33, 37 eV, respectively). Its 1-hydroxy derivative, compound 4-(1-butyl)-4,5-dihydro-7-hydroxy-N-(1-hydroxyadamantan-3-yl)-2-methyl-5-oxo-2H-pyrazolo[4,3-b]pyridine-6-carboxamide, was employed as Internal Standard: m/z = 415.2 [M+H]^+ → m/z = 266.1, 248.1 (TL = 99 V; CE = 14, 31 eV). Calibration curves were prepared in MeOH in the 1000–10 nM concentration range starting and coefficients of determination of regression models were >0.99. Xcalibur software version 2.2 (Thermo Fisher Scientific, Inc., Waltham, MA, USA) was employed for both data acquisition and processing. […]

[2] = target: T1, human CB2 receptor (Homo sapiens, UniProt P34972); conditions: Figure 1, earlier ligands of the group; cited from earlier work
[3] = target: T1, human CB2 receptor; assay: Competition binding assay, displacement of [3H]-CP-55,940, CB2R; design: logKiCB2 (nM) Exp.: unit not given here; conditions: for Ki: CB2R Ki, membranes from HEK cells, [3H]CP-55,940, mean ± SD, at least three experiments in duplicate; for logKiCB2 (nM) Exp.: log of experimental Ki
Procedure: (§1) Binding at equilibrium was performed as previously reported. […] All compounds were tested following the procedure described by the manufacturer (Perkin Elmer, Italy). […] Ki values were calculated by applying the Cheng–Prusoff equation to the IC50 values (obtained by GraphPad) for the displacement of the bound radioligand by increasing concentrations of the test compound.

[4] = target: T1, human CB2 receptor; assay: cAMP Hunter functional assay in NKH-477-stimulated CHO-K1 cells overexpressing CB2R; conditions: for Functional behavior at CB2R: agonist mode / antagonist mode with JWH-133 4 µM challenge
[5] = target: human recombinant CB1 receptor (Homo sapiens, UniProt P21554); assay: Competition binding assay, displacement of [3H]-CP-55,940, CB1R
Procedure: as §1

T1 sequence (P34972 whole entry): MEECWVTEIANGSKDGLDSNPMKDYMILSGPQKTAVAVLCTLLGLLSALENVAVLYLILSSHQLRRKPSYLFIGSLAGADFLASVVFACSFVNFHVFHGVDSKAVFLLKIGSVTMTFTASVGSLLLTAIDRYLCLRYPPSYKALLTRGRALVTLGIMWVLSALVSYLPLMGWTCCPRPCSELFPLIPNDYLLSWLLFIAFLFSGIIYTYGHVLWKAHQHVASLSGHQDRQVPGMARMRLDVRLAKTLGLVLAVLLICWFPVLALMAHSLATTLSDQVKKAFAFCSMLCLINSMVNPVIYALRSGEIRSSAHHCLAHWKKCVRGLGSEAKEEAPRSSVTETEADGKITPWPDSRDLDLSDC
human recombinant CB1 receptor, sequence (P21554 whole entry): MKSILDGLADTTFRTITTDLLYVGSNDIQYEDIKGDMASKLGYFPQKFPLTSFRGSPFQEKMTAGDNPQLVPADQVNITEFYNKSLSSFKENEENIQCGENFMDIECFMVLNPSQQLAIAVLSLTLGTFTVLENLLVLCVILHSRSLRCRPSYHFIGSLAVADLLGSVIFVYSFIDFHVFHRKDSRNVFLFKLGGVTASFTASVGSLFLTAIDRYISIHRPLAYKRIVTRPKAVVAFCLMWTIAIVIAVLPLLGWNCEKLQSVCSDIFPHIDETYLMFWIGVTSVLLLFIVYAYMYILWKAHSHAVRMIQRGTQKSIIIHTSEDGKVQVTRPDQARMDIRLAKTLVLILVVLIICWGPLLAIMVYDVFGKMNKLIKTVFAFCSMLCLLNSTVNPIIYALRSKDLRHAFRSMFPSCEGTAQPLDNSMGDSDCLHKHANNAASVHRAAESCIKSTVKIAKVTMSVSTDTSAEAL

## CCCCn1c(=O)c(C(=O)NC23CC4CC(CC(C4)C2)C3)c(O)c2nn(C)cc21.[Cs] [63-cesium salt, N-(Adamantan-1-yl)-4-(1-butyl)-7-hydroxy-2-methyl-5-oxo-4,5-dihydro-2H-pyrazolo[4,3-b]pyridine-6-carboxamide Cesium Salt]
[1]; 0.9% NaCl
  Concentration of dissolved 63 maintained for at least one hour: around 50 × 10^−6 mol/L
  Peak concentration of dissolved 63: higher than 100 × 10^−6 mol/L
  Time to decrease to the value consistent with the Ks of the sodium salt: 200 min

## CCCCn1c(=O)c(C(=O)NC23CC4CC(CC(C4)C2)C3)c(O)c2nn(C)cc21.[Na] [63-sodium salt, N-(Adamantan-1-yl)-4-(1-butyl)-7-hydroxy-2-methyl-5-oxo-4,5-dihydro-2H-pyrazolo[4,3-b]pyridine-6-carboxamide Sodium Salt]
[1]; excess salt in 0.9% NaCl, room temperature
  Concentration of dissolved 63, average over time points: 6.37 µM

## CCCCCn1c(=O)c(C(=O)NC23CC4CC(CC(C4)C2)C3)c(O)c2nn(C)cc21 [Compound 3, reference compound]
[2]
  Selectivity Index: 167

## Cn1cc2c(n1)c(O)c(C(=O)NC13CC4CC(CC(C4)C1)C3)c(=O)n2Cc1ccccc1 [Compound 26, N-(Adamantan-1-yl)-4-benzyl-7-hydroxy-2-methyl-5-oxo-4,5-dihydro-2H-pyrazolo[4,3-b]pyridine-6-carboxamide]
[3]
  Ki: < 20 nM and 0.48 nM
other
  melting point: 180 to 183 °C
[4]
  Functional behavior at CB2R: antagonist/inverse agonist behavior

## CCCCCn1c(=O)c(C(=O)NC23CC4CC(CC(C4)C2)C3)c(O)c2nn(C)c(C)c21 [Compound 55, N-(Adamantan-1-yl)-7-hydroxy-2,3-dimethyl-5-oxo-4-(1-pentyl)-4,5-dihydro-2H-pyrazolo[4,3-b]pyridine-6-carboxamide]
[3]
  Ki: < 20 nM and 2.11 nM
  logKiCB2 (nM) Exp.: 0.32
other
  melting point: 67 °C
[5]
  CB1 receptor activity in words: not active at all
[5]; membranes from HEK cells, [3H]CP-55,940, mean ± SD, at least three experiments in duplicate, read-out: CB1R Ki
  Ki: > 10000 nM
[4]
  Functional behavior at CB2R: antagonist/inverse agonist behavior

## CC(C)n1c(=O)c(C(=O)NC23CC4CC(CC(C4)C2)C3)c(O)c2c1cnn2C [Compound 57]
[3]
  SI (selectivity index for CB2R, Ki(CB1R)/Ki(CB2R)): >184
  Ki: 54.3 ± 12.3 nM
  logKiCB2 (nM) Exp.: 1.73
[5]
  Ki: > 10000 nM
[4]
  EC50: 1590 nM
  Functional behavior at CB2R: typical agonist behavior
[4]; agonist mode, 25 µM NKH477
  Emax: 84.05
